Experimental data from ChEMBL document CHEMBL1201862, “PubChem BioAssay data set” (2004).
Activity calls are given as the source filed them.

Assays:
Mu-type opioid receptor = Mu-type opioid receptor (Homo sapiens, UniProt P35372); type: functional, cell-based;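 also: U2OS cells with beta-arrestin recruitment to OPRM1 by beta-gal complementation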
[1] = biological target: 5-hydroxytryptamine receptor 2A (Mus musculus, UniProt P35363); type: functional, cell-based;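 also: CHO-K1 cells with tagged receptor and beta-arrestin; agonist potency measured as compound-induced activation of the receptor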
5-hydroxytryptamine receptor 2A, sequence (P35363 whole entry): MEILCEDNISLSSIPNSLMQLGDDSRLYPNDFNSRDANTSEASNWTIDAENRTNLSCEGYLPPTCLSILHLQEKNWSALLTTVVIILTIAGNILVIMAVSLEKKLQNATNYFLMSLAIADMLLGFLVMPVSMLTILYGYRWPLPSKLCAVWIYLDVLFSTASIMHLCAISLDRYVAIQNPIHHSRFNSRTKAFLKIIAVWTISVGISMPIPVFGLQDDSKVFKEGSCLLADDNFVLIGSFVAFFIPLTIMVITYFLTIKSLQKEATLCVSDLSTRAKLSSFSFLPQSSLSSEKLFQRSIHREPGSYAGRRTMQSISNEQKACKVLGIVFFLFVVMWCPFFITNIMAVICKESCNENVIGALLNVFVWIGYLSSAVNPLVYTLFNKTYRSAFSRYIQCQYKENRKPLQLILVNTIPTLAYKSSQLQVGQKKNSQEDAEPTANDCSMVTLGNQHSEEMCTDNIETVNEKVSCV

cells = type: functional, cell-based
[2] = biological target: T1, Long-chain-fatty-acid--AMP ligase FadD28 (Mycobacterium tuberculosis, UniProt P9WQ59); assay: Fluorescence polarization aasay to screen for inhibitors that compete for the binding of FadD28 to a bisubstrate Measured in Biochemical System Using Plate Reader - 2147-01_Inhibitor_Dose_CherryPick_Activity.; type: functional, Mycobacterium tuberculosis H37Rv
T1 sequence (P9WQ59 whole entry): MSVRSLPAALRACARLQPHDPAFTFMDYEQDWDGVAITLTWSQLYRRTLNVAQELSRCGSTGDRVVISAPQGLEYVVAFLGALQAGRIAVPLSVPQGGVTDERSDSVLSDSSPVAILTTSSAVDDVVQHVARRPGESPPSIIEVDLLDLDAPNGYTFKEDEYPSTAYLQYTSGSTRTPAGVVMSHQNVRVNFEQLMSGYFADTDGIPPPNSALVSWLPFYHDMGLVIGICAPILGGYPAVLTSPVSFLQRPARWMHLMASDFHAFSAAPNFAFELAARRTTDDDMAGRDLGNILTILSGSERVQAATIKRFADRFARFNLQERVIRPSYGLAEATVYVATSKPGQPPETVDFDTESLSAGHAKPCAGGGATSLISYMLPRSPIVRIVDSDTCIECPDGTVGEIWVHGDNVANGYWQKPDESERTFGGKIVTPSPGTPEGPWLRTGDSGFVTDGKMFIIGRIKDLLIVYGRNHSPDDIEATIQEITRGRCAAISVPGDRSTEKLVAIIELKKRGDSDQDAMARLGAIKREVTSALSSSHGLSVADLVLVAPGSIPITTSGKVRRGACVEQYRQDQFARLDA

[3] = biological target: T2, Nuclear receptor subfamily 0 group B member 1 (Homo sapiens, UniProt P51843); type: functional, cell-based;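 also: HEK293T cells transfected with SF-1 and DAX-1 plus StAR promoter luciferase reporter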
T2 sequence (P51843 whole entry): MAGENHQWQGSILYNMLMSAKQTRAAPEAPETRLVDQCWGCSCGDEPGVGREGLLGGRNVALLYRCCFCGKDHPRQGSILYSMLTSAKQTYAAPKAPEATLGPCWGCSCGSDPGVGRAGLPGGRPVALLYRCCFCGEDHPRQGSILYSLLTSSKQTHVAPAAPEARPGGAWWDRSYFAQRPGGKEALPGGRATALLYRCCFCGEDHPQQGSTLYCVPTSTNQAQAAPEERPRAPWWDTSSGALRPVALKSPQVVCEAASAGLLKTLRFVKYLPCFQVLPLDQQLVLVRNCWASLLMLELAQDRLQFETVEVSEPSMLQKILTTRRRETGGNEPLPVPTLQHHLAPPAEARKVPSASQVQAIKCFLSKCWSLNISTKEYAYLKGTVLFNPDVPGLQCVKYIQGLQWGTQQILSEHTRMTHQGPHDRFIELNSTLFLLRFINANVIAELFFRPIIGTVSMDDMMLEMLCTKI

[4] = biological target: T3, Histone-lysine N-methyltransferase NSD2 (Homo sapiens, UniProt O96028); type: biochemical
T3 sequence (O96028 whole entry): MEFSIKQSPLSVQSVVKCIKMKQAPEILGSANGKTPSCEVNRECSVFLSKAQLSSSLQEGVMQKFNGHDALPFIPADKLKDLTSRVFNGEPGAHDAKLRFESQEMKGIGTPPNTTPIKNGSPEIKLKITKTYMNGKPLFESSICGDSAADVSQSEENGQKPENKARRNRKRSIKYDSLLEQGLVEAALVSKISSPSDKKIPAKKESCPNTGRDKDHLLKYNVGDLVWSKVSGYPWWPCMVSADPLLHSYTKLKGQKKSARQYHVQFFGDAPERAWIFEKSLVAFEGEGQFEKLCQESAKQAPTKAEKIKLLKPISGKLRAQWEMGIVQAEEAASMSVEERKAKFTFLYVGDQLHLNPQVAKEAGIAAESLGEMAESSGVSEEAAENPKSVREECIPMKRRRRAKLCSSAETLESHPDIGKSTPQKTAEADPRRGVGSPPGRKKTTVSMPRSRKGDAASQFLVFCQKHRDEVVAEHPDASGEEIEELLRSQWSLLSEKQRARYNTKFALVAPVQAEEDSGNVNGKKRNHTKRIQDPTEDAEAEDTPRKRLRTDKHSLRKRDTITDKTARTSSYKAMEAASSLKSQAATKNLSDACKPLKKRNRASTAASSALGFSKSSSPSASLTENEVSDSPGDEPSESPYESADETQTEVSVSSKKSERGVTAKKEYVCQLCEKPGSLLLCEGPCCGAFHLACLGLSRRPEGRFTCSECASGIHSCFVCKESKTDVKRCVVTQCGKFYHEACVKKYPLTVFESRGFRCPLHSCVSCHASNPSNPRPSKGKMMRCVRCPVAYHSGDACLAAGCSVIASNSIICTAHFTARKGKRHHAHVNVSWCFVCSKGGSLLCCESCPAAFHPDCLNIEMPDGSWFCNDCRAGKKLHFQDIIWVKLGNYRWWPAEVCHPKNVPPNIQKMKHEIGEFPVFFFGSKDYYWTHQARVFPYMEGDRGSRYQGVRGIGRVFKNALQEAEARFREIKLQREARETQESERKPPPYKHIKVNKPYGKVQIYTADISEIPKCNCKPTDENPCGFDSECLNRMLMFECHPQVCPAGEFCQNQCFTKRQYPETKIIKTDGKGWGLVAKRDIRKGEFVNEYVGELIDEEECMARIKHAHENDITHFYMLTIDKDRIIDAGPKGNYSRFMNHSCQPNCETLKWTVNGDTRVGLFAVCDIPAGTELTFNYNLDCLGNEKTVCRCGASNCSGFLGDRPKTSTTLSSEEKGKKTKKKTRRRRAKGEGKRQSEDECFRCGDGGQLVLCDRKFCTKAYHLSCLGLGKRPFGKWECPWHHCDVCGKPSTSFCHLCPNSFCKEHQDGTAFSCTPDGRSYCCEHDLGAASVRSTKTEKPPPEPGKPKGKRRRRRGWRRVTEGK

Large T antigen = Large T antigen (Simian virus 40, UniProt P03070); type: functional, Betapolyomavirus macacae;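 also: Confirmatory-stage PubChem screen for compounds that inhibit SV40 T antigen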
Large T antigen, sequence (P03070 whole entry): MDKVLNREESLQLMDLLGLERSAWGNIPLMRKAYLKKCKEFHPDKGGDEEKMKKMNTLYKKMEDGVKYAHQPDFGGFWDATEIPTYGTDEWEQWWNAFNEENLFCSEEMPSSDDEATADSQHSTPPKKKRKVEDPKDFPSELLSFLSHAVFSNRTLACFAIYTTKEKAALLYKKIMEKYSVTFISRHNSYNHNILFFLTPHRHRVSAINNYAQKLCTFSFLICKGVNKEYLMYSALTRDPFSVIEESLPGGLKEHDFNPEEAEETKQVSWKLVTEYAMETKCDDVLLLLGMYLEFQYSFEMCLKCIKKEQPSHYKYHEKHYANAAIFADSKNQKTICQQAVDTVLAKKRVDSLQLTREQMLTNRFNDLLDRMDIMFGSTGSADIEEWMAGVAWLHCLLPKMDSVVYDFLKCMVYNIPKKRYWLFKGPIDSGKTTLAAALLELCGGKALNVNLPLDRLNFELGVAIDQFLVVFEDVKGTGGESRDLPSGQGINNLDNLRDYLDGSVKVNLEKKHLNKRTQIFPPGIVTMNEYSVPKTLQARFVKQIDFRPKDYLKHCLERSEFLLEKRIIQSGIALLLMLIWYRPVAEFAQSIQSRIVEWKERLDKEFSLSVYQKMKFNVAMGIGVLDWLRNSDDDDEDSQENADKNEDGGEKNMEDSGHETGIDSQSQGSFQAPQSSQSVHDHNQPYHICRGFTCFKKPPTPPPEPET

[5] = biological target: DNA (cytosine-5)-methyltransferase 1 (Homo sapiens, UniProt P26358); assay: DNMT1 methyltransferase inhibitors, confirmation, biochemical, fluorescent molecular beacon (AID 602386); type: functional
DNA (cytosine-5)-methyltransferase 1, sequence (P26358 whole entry): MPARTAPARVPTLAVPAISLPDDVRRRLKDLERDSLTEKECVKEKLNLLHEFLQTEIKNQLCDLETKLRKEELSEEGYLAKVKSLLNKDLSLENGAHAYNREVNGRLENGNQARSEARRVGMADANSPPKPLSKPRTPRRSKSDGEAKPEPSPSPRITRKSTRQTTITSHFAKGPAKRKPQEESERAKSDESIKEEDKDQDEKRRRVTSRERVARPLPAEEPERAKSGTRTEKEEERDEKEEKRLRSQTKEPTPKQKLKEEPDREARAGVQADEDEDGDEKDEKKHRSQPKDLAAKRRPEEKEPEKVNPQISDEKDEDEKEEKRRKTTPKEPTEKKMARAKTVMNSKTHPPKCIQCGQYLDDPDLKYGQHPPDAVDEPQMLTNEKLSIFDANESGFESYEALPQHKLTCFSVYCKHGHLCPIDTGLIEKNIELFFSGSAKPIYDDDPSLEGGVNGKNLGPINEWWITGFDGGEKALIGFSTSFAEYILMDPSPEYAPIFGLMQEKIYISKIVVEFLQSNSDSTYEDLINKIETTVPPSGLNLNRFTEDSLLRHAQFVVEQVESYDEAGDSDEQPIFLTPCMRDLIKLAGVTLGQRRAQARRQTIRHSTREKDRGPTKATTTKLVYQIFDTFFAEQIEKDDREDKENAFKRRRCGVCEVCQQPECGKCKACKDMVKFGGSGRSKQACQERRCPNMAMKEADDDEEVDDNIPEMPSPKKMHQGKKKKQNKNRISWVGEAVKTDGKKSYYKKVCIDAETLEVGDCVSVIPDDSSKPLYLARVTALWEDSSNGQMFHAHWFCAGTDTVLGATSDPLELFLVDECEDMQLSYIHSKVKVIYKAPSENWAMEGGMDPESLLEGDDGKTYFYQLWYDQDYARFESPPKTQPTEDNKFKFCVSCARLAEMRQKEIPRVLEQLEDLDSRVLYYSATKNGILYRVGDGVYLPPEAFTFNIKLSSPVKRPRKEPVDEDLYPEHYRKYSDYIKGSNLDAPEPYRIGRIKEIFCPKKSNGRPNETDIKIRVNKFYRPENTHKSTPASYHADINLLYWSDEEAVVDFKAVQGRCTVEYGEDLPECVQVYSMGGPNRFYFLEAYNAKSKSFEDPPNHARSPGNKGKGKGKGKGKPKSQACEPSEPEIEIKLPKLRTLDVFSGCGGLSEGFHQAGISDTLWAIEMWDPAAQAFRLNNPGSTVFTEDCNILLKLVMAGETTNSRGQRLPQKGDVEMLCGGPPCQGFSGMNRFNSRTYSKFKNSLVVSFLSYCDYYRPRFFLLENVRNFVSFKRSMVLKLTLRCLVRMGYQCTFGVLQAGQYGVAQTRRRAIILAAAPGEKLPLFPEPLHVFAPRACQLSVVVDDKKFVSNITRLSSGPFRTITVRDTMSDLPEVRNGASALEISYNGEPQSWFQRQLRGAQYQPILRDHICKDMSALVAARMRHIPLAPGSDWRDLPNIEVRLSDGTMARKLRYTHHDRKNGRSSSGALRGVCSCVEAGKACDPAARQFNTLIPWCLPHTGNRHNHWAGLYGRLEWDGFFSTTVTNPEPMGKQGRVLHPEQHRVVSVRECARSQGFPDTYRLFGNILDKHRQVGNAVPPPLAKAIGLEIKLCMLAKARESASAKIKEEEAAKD

[6] = biological target: T4, Small ubiquitin-related modifier 1 (Homo sapiens, UniProt P63165); assay: inhibitors of SUMO1 peptide binding, dose response, biochemical, fluorescence polarization, uHTS hits (AID 624382); type: functional; conditions: read-out: IC50_Mean
T4 sequence (P63165 whole entry, the tested form may be a part): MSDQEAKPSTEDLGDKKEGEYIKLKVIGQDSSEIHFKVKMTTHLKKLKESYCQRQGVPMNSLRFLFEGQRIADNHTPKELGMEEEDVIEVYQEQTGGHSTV

[7] = biological target: T5, RNA-binding protein pos-1 (Caenorhabditis elegans, UniProt G5EF15); assay: inhibitors of POS-1/mex-3 RNA binding, dose response, biochemical, fluorescence polarization (AID 1964);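 also: purified POS-1 fused to maltose binding protein made in E. coli; potency of compounds blocking POS-1 binding to fluorescent RNA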
T5 sequence (G5EF15 whole entry): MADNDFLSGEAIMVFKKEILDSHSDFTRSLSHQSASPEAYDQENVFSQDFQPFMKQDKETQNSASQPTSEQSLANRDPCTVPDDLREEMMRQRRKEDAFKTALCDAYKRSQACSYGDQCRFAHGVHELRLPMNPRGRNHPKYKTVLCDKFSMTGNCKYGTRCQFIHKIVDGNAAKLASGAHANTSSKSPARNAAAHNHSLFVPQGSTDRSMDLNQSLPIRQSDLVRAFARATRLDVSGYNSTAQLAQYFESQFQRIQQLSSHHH

[8] = biological target: Induced myeloid leukemia cell differentiation protein Mcl-1 (Homo sapiens, UniProt Q07820); type: functional
Induced myeloid leukemia cell differentiation protein Mcl-1, sequence (Q07820 whole entry): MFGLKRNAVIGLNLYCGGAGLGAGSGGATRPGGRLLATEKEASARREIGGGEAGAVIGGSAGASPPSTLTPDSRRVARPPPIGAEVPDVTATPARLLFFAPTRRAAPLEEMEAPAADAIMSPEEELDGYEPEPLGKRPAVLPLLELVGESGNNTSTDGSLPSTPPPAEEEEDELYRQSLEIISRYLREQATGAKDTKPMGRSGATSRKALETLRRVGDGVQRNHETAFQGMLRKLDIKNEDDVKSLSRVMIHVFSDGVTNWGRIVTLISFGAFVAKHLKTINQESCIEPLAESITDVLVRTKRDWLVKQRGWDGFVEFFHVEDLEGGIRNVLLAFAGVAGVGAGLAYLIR

[9] = biological target: T4, Small ubiquitin-related modifier 1; assay: inhibitors of SUMO1 partner interactions, dose response, biochemical, FRET (AID 624383); type: functional; conditions: read-out: IC50_Mean
[10] = biological target: T6, Zinc finger protein mex-5 (Caenorhabditis elegans, UniProt Q9XUB2); assay: MEX-5/TCR-2 RNA interaction inhibitors, dose response, biochemical, C. elegans, fluorescence polarization (AID 1960)
T6 sequence (Q9XUB2 whole entry): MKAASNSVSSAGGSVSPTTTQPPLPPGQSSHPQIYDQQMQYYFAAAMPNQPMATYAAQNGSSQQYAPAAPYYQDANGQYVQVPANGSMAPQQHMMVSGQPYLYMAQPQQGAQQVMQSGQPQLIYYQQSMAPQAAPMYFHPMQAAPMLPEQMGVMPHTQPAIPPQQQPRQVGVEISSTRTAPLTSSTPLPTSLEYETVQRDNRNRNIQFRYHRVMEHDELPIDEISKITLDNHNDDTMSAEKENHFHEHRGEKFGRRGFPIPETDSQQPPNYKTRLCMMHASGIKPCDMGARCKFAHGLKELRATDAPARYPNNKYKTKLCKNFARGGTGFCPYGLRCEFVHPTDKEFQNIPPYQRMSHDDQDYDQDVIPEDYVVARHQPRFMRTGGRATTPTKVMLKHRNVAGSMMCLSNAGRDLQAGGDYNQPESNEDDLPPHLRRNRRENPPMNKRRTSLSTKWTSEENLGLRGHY

[11] = biological target: Luciferin 4-monooxygenase (Photinus pyralis, UniProt P08659); assay: Counter Screen for Luciferase-based Assay Positives. [Related pubchem assays: 620, 618, 411 ]
Luciferin 4-monooxygenase, sequence (P08659 whole entry): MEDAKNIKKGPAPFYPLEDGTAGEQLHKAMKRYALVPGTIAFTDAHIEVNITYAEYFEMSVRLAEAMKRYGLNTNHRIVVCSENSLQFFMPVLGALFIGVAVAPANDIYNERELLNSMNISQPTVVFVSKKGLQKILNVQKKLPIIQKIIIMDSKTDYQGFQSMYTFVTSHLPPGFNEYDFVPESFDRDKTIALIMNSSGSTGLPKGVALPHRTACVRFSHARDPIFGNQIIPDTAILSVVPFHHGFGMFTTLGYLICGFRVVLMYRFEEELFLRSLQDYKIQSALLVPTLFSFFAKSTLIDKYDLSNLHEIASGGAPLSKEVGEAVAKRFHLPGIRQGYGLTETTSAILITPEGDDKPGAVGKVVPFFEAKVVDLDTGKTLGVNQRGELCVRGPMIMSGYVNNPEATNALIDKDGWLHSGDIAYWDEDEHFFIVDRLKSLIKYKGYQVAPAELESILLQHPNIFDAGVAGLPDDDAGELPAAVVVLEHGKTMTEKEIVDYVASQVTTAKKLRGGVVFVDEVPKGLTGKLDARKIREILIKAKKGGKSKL

Protein skinhead-1 = biological target: T7, Protein skinhead-1 (Caenorhabditis elegans, UniProt P34707); type: functional
T7 sequence (P34707 whole entry): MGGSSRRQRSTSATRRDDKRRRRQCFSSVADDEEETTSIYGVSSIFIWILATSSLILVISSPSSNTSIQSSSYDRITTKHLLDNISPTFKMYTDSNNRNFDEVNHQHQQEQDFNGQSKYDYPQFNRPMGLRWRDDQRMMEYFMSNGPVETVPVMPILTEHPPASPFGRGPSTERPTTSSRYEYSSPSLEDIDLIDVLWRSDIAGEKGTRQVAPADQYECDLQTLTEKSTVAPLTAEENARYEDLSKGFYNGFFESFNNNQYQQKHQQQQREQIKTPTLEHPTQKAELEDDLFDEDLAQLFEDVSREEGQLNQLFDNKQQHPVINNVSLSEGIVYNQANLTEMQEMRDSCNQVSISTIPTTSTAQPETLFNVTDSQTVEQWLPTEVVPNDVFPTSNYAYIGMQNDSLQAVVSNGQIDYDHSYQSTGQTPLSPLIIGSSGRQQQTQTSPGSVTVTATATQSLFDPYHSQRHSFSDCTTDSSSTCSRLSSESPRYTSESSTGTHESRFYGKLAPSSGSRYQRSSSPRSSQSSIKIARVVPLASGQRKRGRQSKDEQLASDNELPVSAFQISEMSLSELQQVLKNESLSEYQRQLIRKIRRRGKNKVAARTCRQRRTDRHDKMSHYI

[12] = Luminescence Cell-Based Dose Response HTS to Identify Inhibitors of 5'UTR Stem-Loop Driven Prion Protein mRNA Translation in H4 Neuroglioblastoma Cells. [Related pubchem assays: 1827 (Project Summary), 1813 (Primary HTS)]; type: functional
HT-1080 = assay: cytotoxicity in HT1080 fibrosarcoma cells, cell-based, fluorescence readout (AID 620); type: functional; conditions: Homo sapiens
[13] = inhibitors of clade B AD8 Env fusion, dose response, cell-based, cherry-pick (AID 652062); type: functional;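 also: luciferase signal from cell-cell fusion driven by HIV-1 clade B AD8 Env; potency is for inhibitors of fusion seen as a drop in luminescence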
[14] = inhibitors of HIV Env-driven cell fusion, dose response, cherry-pick (AID 652057); type: functional, cell-based
[15] = CEM21 lymphoblast cell cytotoxicity, dose response, cytotoxicity control for viral fusion inhibitor project, CellTiter-Glo luminescence, cherry-picked (AID 652042); type: functional, cell-based;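 also: potency for signal decrease meaning cytotoxicity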

Mu-type opioid receptor, sequence (P35372 whole entry): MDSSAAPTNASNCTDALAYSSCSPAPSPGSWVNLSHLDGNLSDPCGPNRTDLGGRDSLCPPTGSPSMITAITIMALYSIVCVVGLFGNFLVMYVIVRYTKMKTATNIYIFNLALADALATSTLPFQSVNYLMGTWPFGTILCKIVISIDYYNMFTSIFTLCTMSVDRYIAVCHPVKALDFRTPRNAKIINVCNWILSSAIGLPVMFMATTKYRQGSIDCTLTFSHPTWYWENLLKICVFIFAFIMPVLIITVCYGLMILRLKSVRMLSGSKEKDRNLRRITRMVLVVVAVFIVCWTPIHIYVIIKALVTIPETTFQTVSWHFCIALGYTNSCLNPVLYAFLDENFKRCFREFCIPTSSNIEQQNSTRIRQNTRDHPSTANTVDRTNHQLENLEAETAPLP

Compound	EC50 (Mu-type opioid receptor)	EC50 [1]	IC50 (cells)	IC50 [3]	further results
CCOC(=O)N1CCN(Cc2ccc(OCC(O)CN3CCCCC3)cc2)CC1 (stereo not given)	92.5 µM (inactive)	2.22 µM (active)			
c1cnc(N2CCN(Cc3ccc4c(c3)OCO4)CC2)nc1	92.5 µM (inactive)	0.00986 µM (active)			
CCc1cccc2c(C(=O)CN3C(=O)NC4(CCc5ccccc54)C3=O)c[nH]c12 (stereo not given)			> 67.5 µM (inactive)	> 67.5 µM (inactive)	AC50 [2]: 29.2 µM (active)
O=C(COC(=O)c1ccc(O)cc1O)c1ccc(Cl)cc1			> 67.5 µM (inactive)	> 67.5 µM (inactive)	
O=C(O)c1ccc(-n2cccc2/C=C2/NC(=O)N(c3ccccc3)C2=O)cc1					AC50 [4]: 5.87 µM (active); IC50 (Large T antigen): > 100 µM (active); IC50 [5]: 3.83 µM (active); IC50 [6]: > 66.6 µM (inactive); EC50 [7]: > 300 µM (not active); IC50 [8]: 3.51 µM (active); IC50 [9]: 9.62 µM (active); EC50 [10]: 71.1 µM (active)
O=C(/C=C\Nc1ccccn1)c1ccccc1			> 67.5 µM (inactive)	> 67.5 µM (inactive)	EC50 [11]: < 0.2 µM (active); IC50 (Protein skinhead-1): 15.1 µM (active); EC50 [12]: 10.7 µM (inconclusive); EC50 (HT-1080): > 50 µM (not active)
CC[C@@H](C)[C@H](C(CC(=O)N1CCCC1[C@@H](OC)[C@H](C)C(=O)N[C@H](Cc1ccccc1)c1nccs1)OC)N(C)C(=O)[C@H](NC(=O)[C@@H](C(C)C)N(C)C)C(C)C (stereo not given in full)			> 67.5 µM (inactive)	> 67.5 µM (inactive)	
CSCCC(=O)N1CC[C@@H](N2CCN(c3ccccc3F)CC2)[C@H](O)C1	92.5 µM (inactive)	41.7 µM (inactive)			
COc1cccc(CNc2nc(NCc3ccccc3OC)nc3ccsc23)c1					AC50 [13]: 16.8 µM (active); AC50 [14]: 31.9 µM (active); AC50 [15]: 68.5 µM (active); IC50 (Protein skinhead-1): > 100 µM (inactive)
CCC1CS/C(=N\c2ccc(C)cc2)N1C(=O)CN1C(=O)NC2(CCCC2)C1=O (stereo not given)			> 67.6 µM (inactive)	> 67.6 µM (inactive)	
CC(=O)NCC1(c2ccccc2)CCN(CC2COc3ccccc3O2)CC1 (stereo not given) [ACOXATRINE]	92.6 µM (inactive)	76.2 µM (inactive)			
